Results: patent US20060058380A1, “Novel aminobenzophenone compounds” (priority 2002, published 2006)

Assays:
[1] = tested on: IL-1β; experiment: Inhibition of IL-1β secretion in LPS stimulated peripheral blood mononuclear cells; format: cell-based; settings: PBMC; LPS stimulated human peripheral blood mononuclear cells, 18 hours, ELISA; read-out: The median inhibition concentration (IC50, nM) IL-1β
Procedure: (§1) To study the effect of the compound of the present invention in vitro the inhibition of the IL-1β and TNF-α secretion was measured using the following procedure:
(§2) Cytokine production was measured in the media from lipopolysaccharide (LPS) stimulated peripheral blood mononuclear cells. The mononuclear cells were isolated from human peripheral blood by Lymphoprep® (Nycomed, Norway) fractionation and suspended in RPMI 1640 (growth medium) with foetal calf serum (FCS, 2%), at a concentration of 5×10^5 cells/ml. The cells were incubated in 24-well tissue culture plates in 1 ml aliquots. Test compounds were dissolved in dimethylsulfoxide (DMSO, 10 mM) and were diluted with the medium. Compounds were added to the cells for 30 minutes, then LPS ([…] final concentration) was added. The plates were incubated for 18 hours, and the concentration of IL-1β and TNF-α in the medium was determined by enzyme-linked immunosorbent assays. The median inhibitory concentrations (IC50) of the compounds were calculated.

[2] = tested on: TNF-α; experiment: Inhibition of TNF-α secretion in LPS stimulated peripheral blood mononuclear cells; format: cell-based; settings: PBMC; LPS stimulated human peripheral blood mononuclear cells, 18 hours, ELISA; read-out: The median inhibition concentration (IC50, nM) TNF-α
Procedure: as §1, §2

[3] = Discolouring of compounds on filter paper before and after sun-test illumination; format: physicochemical; parameters: key: 0: No colour; 1: Very faint colour; 2: Light colour; 3: Medium colour; 4: Strong colour; settings: for Colour score prior to illumination: 10 mM in Ethanol:Labrasol:water 65:25:10, 10 ul spot on filter paper dried 15 minutes; for Colour score after illumination: spots illuminated in sun-test cabinet (Heraeus Suntest CPS), outdoor illumination, 5 minutes
Procedure: The discolouring of compounds of formula I was investigated in a comparison with known aminobenzophenones.
Compounds were dissolved in DMSO at 100 mM. The solutions were diluted 1:10 in the test vehicle (Ethanol:Labrasol:water 65:25:10) just prior to the experiment. 10 ul aliquots were placed in droplets on filter paper and allowed to dry for 15 minutes into spots. Then the colour of the spots was scored using the following scale:
The spots were illuminated in a sun-test cabinet (Heraeus Suntest CPS) set for outdoor illumination for 5 minutes. The scoring was repeated after illumination.

[4] = tested on: comedones; experiment: Rhino mouse model, reduction of number of comedones; format: in vivo; settings: topical on the back daily for 21 days, 45 mM in acetone, percentage change compared to untreated control group
Procedure: The rhino mouse is an in vivo model for the study of hyperplastic and comedolytic potency of compounds used in the treatment of acne. The rhino mouse has follicles on the skin, the orifices of which are distended with horny material, and these structures resembles human comedones.
The model uses mouse of the strain RHJ/LeJ Rhino, hr^rh/hr^rh. The mice are treated topically on the back daily for 21 days with the test compound. Compounds are tested for their ability to reduce the number of comedones.
The number of comedones in the skin of the mouse is determined by histological examination. The percentage change in the number of comedones compared to an untreated control group is calculated. The compounds were applied at 45 mM dissolved in acetone.

Cc1ccccc1C(=O)c1ccc(N(C(=O)OC(C)OC(=O)C(C)(C)O)c2ccc(F)cc2C)cc1Cl (stereo not shown) [Compound 128, 2-Hydroxy-2-methyl-propionic acid 1-[[3-chloro-4-(2-methyl-benzoyl)-phenyl]-(4-fluoro-2-methyl-phenyl)-carbamoyloxy]-ethyl ester]
IC50 [1]: 10 nM
IC50 [2]: 7.9 nM

CNc1ccccc1C(=O)c1ccc(Nc2ccccc2N)cc1Cl [Reference c, 4-(2-aminophenylamino)-2-chloro-2′-methylaminobenzophenon, reference compound]
Colour score prior to illumination [3]: 1
Colour score after illumination [3]: 3

C/C=C/C(=O)OC(C)OC(=O)N(c1ccc(C(=O)c2ccccc2C)c(Cl)c1)c1ccc(F)cc1C (stereo not shown) [Compound 137, (E)-But-2-enoic acid 1-[[3-chloro-4-(2-methyl-benzoyl)-phenyl]-(4-fluoro-2-methyl-phenyl)-carbamoyloxy]-ethyl ester]
IC50 [1]: 7.9 nM
IC50 [2]: 5 nM

Cc1cc(F)ccc1Nc1ccc(C(=O)c2ccccc2C)c(Cl)c1 [Reference a, 2-chloro-4-(4-fluoro-2-methyl-phenylamino)-2′-methylbenzophenone, reference compound]
IC50 [1]: 32 nM
Colour score prior to illumination [3]: 0
Colour score after illumination [3]: 3
IC50 [2]: 7.9 nM

Cc1ccccc1C(=O)c1ccc(Nc2ccc(Br)cc2N)cc1Cl [Reference b, 4-(2-amino-4-bromo-phenylamino)-2-chloro-2′-methylbenzophenone, reference compound]
Colour score prior to illumination [3]: 1
Colour score after illumination [3]: 3

CCCC(=O)OCOC(=O)N(c1ccc(C(=O)c2ccccc2C)c(Cl)c1)c1ccc(F)cc1C [Compound 113, Butyric acid [[3-chloro-4-(2-methyl-benzoyl)-phenyl]-(4-fluoro-2-methyl-phenyl)-carbamoyloxy]-methyl ester]
Reduction in number of comedones [4]: −72%
IC50 [1]: 50 nM
Colour score prior to illumination [3]: 0
Colour score after illumination [3]: 0
IC50 [2]: 10 nM

Cc1ccccc1C(=O)c1ccc(N(C(=O)OC(C)OC(=O)CC(C)C)c2ccc(F)cc2C)cc1Cl (stereo not shown) [Compound 133, 3-Methyl-butyric acid 1-[[3-chloro-4-(2-methyl-benzoyl)-phenyl]-(4-fluoro-2-methyl-phenyl)-carbamoyloxy]-ethyl ester]
Reduction in number of comedones [4]: −61%
IC50 [1]: 79 nM
Colour score prior to illumination [3]: 0
Colour score after illumination [3]: 0
IC50 [2]: 20 nM

Cc1ccccc1C(=O)c1ccc(N(C(=O)OC(C)OC(=O)c2cccnc2)c2ccc(F)cc2C)cc1Cl (stereo not shown) [Compound 147, Nicotinic acid 1-[[3-chloro-4-(2-methyl-benzoyl)-phenyl]-(4-fluoro-2-methyl-phenyl)-carbamoyloxy]-ethyl ester]
Colour score prior to illumination [3]: 0
Colour score after illumination [3]: 0

CCCC(=O)OC(C)OC(=O)N(c1ccc(C(=O)c2ccccc2C)c(Cl)c1)c1ccc(F)cc1C (stereo not shown) [Compound 112, Butyric acid 1-[[3-chloro-4-(2-methyl-benzoyl)-phenyl]-(4-fluoro-2-methyl-phenyl)-carbamoyloxy]-ethyl ester]
Reduction in number of comedones [4]: −56%
IC50 [1]: 25 nM
Colour score prior to illumination [3]: 0
Colour score after illumination [3]: 0
IC50 [2]: 12 nM

COCC(=O)OC(C)OC(=O)N(c1ccc(C(=O)c2ccccc2C)c(Cl)c1)c1ccc(F)cc1C (stereo not shown) [Compound 119, Methoxy-acetic acid 1-[[3-chloro-4-(2-methyl-benzoyl)-phenyl]-(4-fluoro-2-methyl-phenyl)-carbamoyloxy]-ethyl ester]
Colour score prior to illumination [3]: 0
Colour score after illumination [3]: 0
